Source: ChEMBL document CHEMBL4414648, “Novel Benzohydroxamate-Based Potent and Selective Histone Deacetylase 6 (HDAC6) Inhibitors Bearing a Pentaheterocyclic Scaffold: Design, Synthesis, and Biological Evaluation” (J Med Chem, 2019)

Key:
[1] = Toxicity in C57BL/6 mouse assessed as effect on platelet level at 50 mg/kg, ip administered for 5 days/week for two cycles and measured 60 mins post last dose by cell counter method relative to control; type: organism-based; details: in vivo, 1 h
[2] = Toxicity in C57BL/6 mouse assessed as effect on body weight at 50 mg/kg, ip administered for 5 days/week for two cycles and measured every other day relative to control; type: organism-based; details: in vivo, 120 h
[3] = Total clearance in CD-1 mouse at […], iv measured within 6 hrs by LC-MS/MS analysis; type: ADME, organism-based; details: in vivo
[4] = Cmax in CD-1 mouse at 5.2 mg/kg, po measured within 6 hrs by LC-MS/MS analysis; type: ADME, organism-based; design: dose 5.2 mg/kg, route oral; details: in vivo
[5] = Toxicity in C57BL/6 mouse assessed as effect on body weight at 30 mg/kg, ip administered for 5 days/week for two cycles and measured every other day relative to control; type: organism-based; details: in vivo, 120 h
[6] = Toxicity in C57BL/6 mouse assessed as effect on WBC level at 30 mg/kg, ip administered for 5 days/week for two cycles and measured 60 mins post last dose by beckman coulter counting method relative to control; type: organism-based; details: in vivo, 1 h
Cytochrome P450 3A4 = Cytochrome P450 3A4 (Homo sapiens, UniProt P08684)
Cytochrome P450 3A4, sequence (P08684 whole entry): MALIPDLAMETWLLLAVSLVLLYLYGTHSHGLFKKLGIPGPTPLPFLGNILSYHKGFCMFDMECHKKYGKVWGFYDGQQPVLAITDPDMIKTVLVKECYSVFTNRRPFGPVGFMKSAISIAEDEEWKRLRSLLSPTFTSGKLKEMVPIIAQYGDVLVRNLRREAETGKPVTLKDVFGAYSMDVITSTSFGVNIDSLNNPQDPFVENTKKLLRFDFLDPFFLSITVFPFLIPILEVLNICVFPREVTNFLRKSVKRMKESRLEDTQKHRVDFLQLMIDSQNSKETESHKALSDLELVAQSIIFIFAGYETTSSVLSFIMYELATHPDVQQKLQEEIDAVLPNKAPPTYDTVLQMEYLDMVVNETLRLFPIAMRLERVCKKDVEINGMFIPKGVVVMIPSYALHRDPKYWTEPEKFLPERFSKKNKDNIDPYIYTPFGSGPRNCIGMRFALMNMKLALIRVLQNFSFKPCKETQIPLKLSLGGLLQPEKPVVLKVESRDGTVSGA
Description: Inhibition of CYP3A4 in human liver microsomes using testosterone as substrate

[7] = Stability in rat liver S9 fraction assessed as parent compound remaining at 5 uM after 90 mins in presence of NADPH by LC-MS/MS analysis; type: ADME, subcellular; details: read-out: Stability
[8] = Selectivity ratio of IC50 for human HDAC4 expressed in baculovirus infected sf9 insect cells to IC50 for human N-terminal GST-tagged HDAC6 expressed in baculovirus infected sf9 insect cells
[9] = Toxicity in C57BL/6 mouse assessed as effect on platelet level at 30 mg/kg, ip administered for 5 days/week for two cycles and measured 60 mins post last dose by cell counter method relative to control; type: organism-based; details: in vivo, 1 h
[10] = Oral bioavailability in CD-1 mouse at 5.2 mg/kg measured within 6 hrs by LC-MS/MS analysis; type: ADME, organism-based; details: in vivo
[11] = Selectivity ratio of IC50 for N-terminal Flag-tagged human HDAC10 (2 to 631 residues) expressed in baculovirus infected sf9 insect cells to IC50 for human N-terminal GST-tagged HDAC6 expressed in baculovirus infected sf9 insect cells
[12] = Selectivity ratio of IC50 for C-terminal GST-tagged human HDAC5 to IC50 for human N-terminal GST-tagged HDAC6 expressed in baculovirus infected sf9 insect cells
[13] = Toxicity in C57BL/6 mouse assessed as effect on WBC level at 50 mg/kg, ip administered for 5 days/week for two cycles and measured 60 mins post last dose by beckman coulter counting method relative to control; type: organism-based; details: in vivo, 1 h
[14] = Toxicity in C57BL/6 mouse assessed as induction of piloerection up to 50 mg/kg, ip administered for 5 days/week for two cycles and measured daily starting from day 1; type: organism-based; details: in vivo, 120 h
[15] = Toxicity in ip dosed C57BL/6 mouse administered for 5 days/week for two cycles; type: organism-based; details: in vivo
[16] = Selectivity ratio of IC50 for C-terminal His-tagged human HDAC8 expressed in baculovirus infected sf9 insect cells to IC50 for human N-terminal GST-tagged HDAC6 expressed in baculovirus infected sf9 insect cells
[17] = Toxicity in C57BL/6 mouse assessed as induction of kyphosis up to 50 mg/kg, ip administered for 5 days/week for two cycles and measured daily starting from day 1; type: organism-based; details: in vivo, 120 h
[18] = Stability in human liver S9 fraction assessed as parent compound remaining at 5 uM after 90 mins in presence of NADPH by LC-MS/MS analysis; type: ADME, subcellular; details: read-out: Stability
[19] = biological target: T1, Protein deacetylase HDAC6 (Mus musculus) (UniProt Q9Z2V5); assay: Inhibition of HDAC6 in C57BL/6 mouse regulatory T cells assessed as increase in Treg-mediated suppression of anti-CD3 induced CD4+ cell division at 500 nM after 72 hrs in presence mitomycin-treated APC by CFSE dye based flow cytometric assay relative to control
T1 sequence (whole entry): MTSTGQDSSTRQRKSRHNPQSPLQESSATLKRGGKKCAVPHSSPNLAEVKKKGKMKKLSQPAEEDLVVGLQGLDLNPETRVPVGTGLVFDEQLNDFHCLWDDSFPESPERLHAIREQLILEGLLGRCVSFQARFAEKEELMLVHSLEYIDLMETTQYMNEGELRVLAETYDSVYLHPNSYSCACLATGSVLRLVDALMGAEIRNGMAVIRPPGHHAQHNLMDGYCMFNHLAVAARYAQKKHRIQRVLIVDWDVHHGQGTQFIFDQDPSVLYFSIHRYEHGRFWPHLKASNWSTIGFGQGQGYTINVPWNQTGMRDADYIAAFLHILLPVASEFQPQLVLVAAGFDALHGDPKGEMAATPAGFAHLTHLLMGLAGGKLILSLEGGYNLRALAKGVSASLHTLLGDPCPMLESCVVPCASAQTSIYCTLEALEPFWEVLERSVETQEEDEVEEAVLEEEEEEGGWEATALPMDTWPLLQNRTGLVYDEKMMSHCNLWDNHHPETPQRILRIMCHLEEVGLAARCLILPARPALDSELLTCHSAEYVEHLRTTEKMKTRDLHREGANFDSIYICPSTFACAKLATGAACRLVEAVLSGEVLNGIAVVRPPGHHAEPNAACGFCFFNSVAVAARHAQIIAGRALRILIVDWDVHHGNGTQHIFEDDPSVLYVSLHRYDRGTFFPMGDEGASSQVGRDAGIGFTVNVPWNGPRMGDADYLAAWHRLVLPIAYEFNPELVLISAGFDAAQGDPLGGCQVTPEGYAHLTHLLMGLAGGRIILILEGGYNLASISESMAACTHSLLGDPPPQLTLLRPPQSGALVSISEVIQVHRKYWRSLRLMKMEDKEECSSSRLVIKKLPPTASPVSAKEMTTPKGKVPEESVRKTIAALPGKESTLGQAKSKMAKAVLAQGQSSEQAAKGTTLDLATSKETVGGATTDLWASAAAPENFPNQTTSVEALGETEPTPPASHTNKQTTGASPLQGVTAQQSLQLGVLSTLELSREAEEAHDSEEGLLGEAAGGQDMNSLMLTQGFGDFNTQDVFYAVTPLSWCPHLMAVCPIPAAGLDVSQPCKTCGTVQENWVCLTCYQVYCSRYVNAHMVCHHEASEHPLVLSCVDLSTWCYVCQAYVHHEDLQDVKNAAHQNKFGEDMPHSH

Histone deacetylase = assay: Inhibition of HDAC in human 697 cells assessed as increase in H3 acetylation at 1000 nM incubated for 16 hrs by ELISA; type: cell-based; details: human, 697, 16 h, 1 µM
PBMC = assay: Cytotoxicity against human PBMC cells after 72 hrs by CellTiter 96 aqueous one solution assay; type: cell-based
[20] = Toxicity in C57BL/6 mouse assessed as inactivity/hyperactivity up to 50 mg/kg, ip administered for 5 days/week for two cycles and measured daily starting from day 1; type: organism-based; details: in vivo, 120 h
[21] = Stability in human plasma assessed as parent compound remaining at 100 uM after 4 hrs by LC-MS/MS analysis; type: ADME, cell-free; details: read-out: Stability

Question: With `Cn1c(Sc2ccc(C(=O)NO)cc2)nnc1-c1cccs1` as the compound, how does the Activity [1] read?
Answer: The Activity was -8%.

Question: What about the Activity [2] of the same compound?
Answer: The Activity was 3.5%.

Question: What about the clearance at 6 h [3] of the same compound?
Answer: Its clearance at 6 h is 182 mL/min/kg.

Question: And the Cmax [4]?
Answer: Its Cmax is 144 ng/mL.

Question: And the Activity [5]?
Answer: The Activity was 3.9%.

Question: And the Activity [6]?
Answer: The Activity was -34%.

Question: What about the IC50 (Cytochrome P450 3A4) of the same compound?
Answer: Its IC50 is 26.6 µM.

Question: What about the remaining at […], 5 µM [7] of the same compound?
Answer: The remaining at […], 5 µM was 82%.

Question: What about the “Ratio IC50” value [8] of the same compound?
Answer: The value was 304.

Question: And the Activity [9]?
Answer: The Activity was -2%.

Question: And the bioavailability [10]?
Answer: The bioavailability was 26%.

Question: And the “Ratio IC50” value [11]?
Answer: The value was 343.

Question: What about the “Ratio IC50” value [12] of the same compound?
Answer: The value was 326.

Question: And the Activity [13]?
Answer: The Activity was -30%.

Question: What about the Activity [14] of the same compound?
Answer: Its Activity is “Non-Toxic”.

Question: What about the MTD at 120 h [15] of the same compound?
Answer: The MTD at 120 h was less than 30 mg/kg.

Question: What about the “Ratio IC50” value [16] of the same compound?
Answer: The value was 62.

Question: And the Activity [17]?
Answer: The Activity was “Non-Toxic”.

Question: And the remaining at […], 5 µM [18]?
Answer: The remaining at […], 5 µM was 95%.

Question: And the fold change (FC) [19]?
Answer: Its fold change (FC) is greater than 1.5.

Question: And the “inhibition (INH)” value (Histone deacetylase)?
Answer: Its value is “Active”.

Question: What about the IC50 (PBMC) of the same compound?
Answer: Its IC50 is greater than 1 µM.

Question: What about the Activity [20] of the same compound?
Answer: Its Activity is “Non-Toxic”.

Question: And the remaining at 4 h, 100 µM [21]?
Answer: The remaining at 4 h, 100 µM was 100%.
